Results taken from patent US20050209157A1, “Short bioactive peptides and methods for their use” (priority 2001, published 2005).
Converted amounts (≈) assume the structure as drawn. Read-outs that look alike come from different tables or passages of the source. No end group written: not given here.

Experiments:
[1] = test system: BMKC; test: Anti-cancer assay, MTT, LD50; assay type: cell-based; settings: BMKC cloned melanoma line, 24 hours with peptide
Excerpt: (§1) Numbers are LD50 values (μg/mL).

[2] = test system: MCF7; test: Anti-cancer assay, MTT, LD50; assay type: cell-based; settings: MCF7 breast adenocarcinoma line, MTT, 24 hours with peptide
Excerpt: as §1

[3] = test system: SW480; test: Anti-cancer assay, MTT, LD50; assay type: cell-based; settings: SW480 colon adenocarcinoma line, 24 hours with peptide
Excerpt: as §1

[4] = test system: PC3; test: Anti-cancer assay, MTT, LD50; assay type: cell-based; settings: 24 hours with peptide, prostate adenocarcinoma
Excerpt: as §1

[5] = test system: H1299; test: Anti-cancer assay, MTT, LD50; assay type: cell-based; settings: 24 hours with peptide, lung large cell carcinoma
Excerpt: as §1

[6] = test system: HeLaS3; test: Anti-cancer assay, MTT, LD50; assay type: cell-based; settings: 24 hours with peptide, cervical carcinoma
Excerpt: as §1

[7] = test system: P. aeruginosa H374; assay type: cell-based, Pseudomonas aeruginosa; settings: mean of three; 16 to 20 hours at 35° C.
[8] = test system: S. epidermidis C621; assay type: cell-based, Staphylococcus epidermidis; settings: mean of three; 16 to 20 hours at 35° C.
[9] = test system: S. aureus (MRSA); assay type: cell-based, Staphylococcus aureus; settings: mean of three; 16 to 20 hours at 35° C.
[10] = in vitro; assay type: cell-based, human; settings: human, human red blood cells, pH 7, hemolytic assay, concentration at 50% hemolysis, 1 hour at 37° C.; read-out: LD50
[11] = test system: E. coli UB1005; assay type: cell-based, Escherichia coli; settings: mean of three; 16 to 20 hours at 35° C.; in µg/mL
[12] = test system: P. aeruginosa H374; assay type: cell-based, Pseudomonas aeruginosa; settings: for MIC Cm-comb.: MIC of chloramphenicol with peptide at ¼ MIC; for MIC Nal-comb.: MIC of nalidixic acid with peptide at ¼ MIC; for FIC Index: 0.5 or less = synergy
Outline: (§2)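 Efflux-mutant strains were tested with two-fold serial dilutions of chloramphenicol or nalidixic acid, alone and with peptide held at ¼ of its own MIC.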

[13] = test system: P. aeruginosa H774; assay type: cell-based, Pseudomonas aeruginosa; settings: P. aeruginosa H744; nalidixic acid + peptide at ¼ MIC; 0.5 or less = synergy
Outline: as §2

[14] = test system: P. aeruginosa; assay type: cell-based, Pseudomonas aeruginosa; settings: P. aeruginosa H744; MIC of nalidixic acid with peptide at ¼ MIC
Outline: as §2

[15] = test system: S. typhimurium 14028S; assay type: cell-based, Salmonella typhimurium; settings: mean of three; 16 to 20 hours at 35° C.; in µg/mL
[16] = test system: P. acne ATCC 6919; test: Antimicrobial assays II, NCCLS broth microdilution MIC; assay type: cell-based, Propionibacterium acnes; settings: mean of three, in µg/mL
[17] = test system: WI38; settings: MTT, 24 hours with peptide; normal fibroblast line
[18] = test system: S. pyogenes ATCC19615; test: Antimicrobial assays II, NCCLS broth microdilution MIC; assay type: cell-based, Streptococcus pyogenes; settings: mean of three, in µg/mL
[19] = test system: S. pneumoniae C719; test: as above; assay type: cell-based, Streptococcus pneumoniae; settings: mean of three, in µg/mL
[20] = test system: S. pneumoniae C718; test: as above; assay type: cell-based, Streptococcus pneumoniae; settings: mean of three
[21] = test system: S. pyogenes M76; test: as above; assay type: cell-based, Streptococcus pyogenes; settings: mean of three; 16 to 20 hours at 35° C.
[22] = in vitro; settings: human, WI38 normal lung fibroblast cells, LD50 WI38, WI38 normal lung fibroblast line, MTT, 24 hours with peptide
[23] = test system: Staphylococcus aureus ATCC 6538; test: Antimicrobial assay I, MIC by OD measurement; assay type: cell-based; settings: 37° C. for 24 hours, absorbance 620 nm
[24] = test system: Pseudomonas aeruginosa ATCC 9027; test: Antimicrobial assay I, MIC by OD measurement; assay type: cell-based; settings: 37° C. for 24 hours, absorbance 620 nm
[25] = test system: yeast (Saccharomyces cerevisiae); test: Antimicrobial assay I, yeast assay in RPMI 1640; assay type: cell-based; settings: RPMI 1640 media
[26] = chloramphenicol + peptide at ¼ MIC
[27] = nalidixic acid + peptide at ¼ MIC, FIC=0.25+MIC comb/MIC alone

Row | Compound | LD50 BMKC [1] [µg/mL] | LD50 MCF7 [2] [µg/mL] | LD50 SW480 [3] [µg/mL] | PC3 LD50 [4] [µg/mL] | H1299 LD50 [5] [µg/mL] | HeLaS3 LD50 [6] [µg/mL] | S. epidermidis C621 MIC [8] [µg/mL] | S. aureus (MRSA) MIC [9] [µg/mL] | HC50 at 1 h [10] [µg/mL] | MIC Cm-comb. [12] [µg/mL] | MIC Nal-comb. [12] [µg/mL] | FIC Index [12, 26] | FIC Index [12, 27] | FIC Index [13] | MIC Nal-comb. [14] [µg/mL] | P. acne MIC [16] | WI38 LD50 [17] [µg/mL] | S. pyogenes MIC [18] | S. pneumoniae MIC [19] | S. pneumoniae MIC [20] [µg/mL] | also measured
1 | CC(C)C[C@H](NC(=O)[C@H](C)NC(=O)[C@H](CC(C)C)NC(=O)[C@H](CCCCN)NC(=O)[C@H](C)NC(=O)[C@H](CC(C)C)NC(=O)[C@H](CCCCN)NC(=O)[C@H](CCCCN)NC(=O)[C@H](C)NC(=O)[C@H](CC(C)C)NC(=O)[C@H](CCCCN)NC(=O)[C@H](C)NC(=O)[C@H](CC(C)C)NC(=O)[C@H](CCCCN)NC(=O)[C@H](CCCCN)NC(=O)[C@H](C)NC(=O)[C@@H](N)Cc1ccccc1)C(=O)O [P61] | 140 | 105 | 100 | 66 | 127 | 170 | 8 | 32 | 390 | 16 | 5000 | 1.25 | 1.25 | 1.25 | 624 | 2 | 93 | 16 | 32 | 128 | P. aeruginosa H374 MIC [7]: 4 µg/mL; E. coli UB1005 MIC [11]: 2; S. typhimurium 14028S MIC [15]: 4; S. pyogenes M76 MIC [21]: 16 µg/mL; CC50 at 24 h [22]: 93 µg/mL (≈ 50.1 µM)
2 | FAKKLAKKLAKLL-NH2 [P75] | 24 | 42 | 17 | 54 | 80 | 74 | 8 | 32 | 750 | 8 | 2500 | 0.75 | 0.75 | 1.25 | 624 | 16 | 80 | 4 | 64 | > 128 | staph6538 (MIC) [23]: 5 µg/mL; paerug9027 (MIC) [24]: 5 µg/mL; yeast (MIC or MFC) [25]: 50 µg/mL; S. pyogenes M76 MIC [21]: 8 µg/mL; CC50 at 24 h [22]: 80 µg/mL
3 | FALALKALKKLAKKLKKLAKKAL-NH2 [P25] | 36 | 10 | 12 | 12 | 37 | 20 | 4 | 16 | 16 | 4 | 2500 | 0.5 | 0.75 | 0.5 | 156 | 2 | 24 | 8 | 8 | 64 | staph6538 (MIC) [23]: 10 µg/mL; paerug9027 (MIC) [24]: 5 µg/mL; yeast (MIC or MFC) [25]: 25 µg/mL; S. pyogenes M76 MIC [21]: 8 µg/mL; CC50 at 24 h [22]: 24 µg/mL
4 | FAKLLAKALKKLL-NH2 [P55] | 16 | 16 | 14 | 47 | 7 | 15 | 2 | 4 | 20 | 16 | 5000 | 1.25 | 1.25 | 1.25 | 624 | 4 | 32 | 2 | 4 | 8 | staph6538 (MIC) [23]: 5 µg/mL; paerug9027 (MIC) [24]: 5 µg/mL; yeast (MIC or MFC) [25]: 25 µg/mL; S. pyogenes M76 MIC [21]: 4 µg/mL; CC50 at 24 h [22]: 32 µg/mL
5 | FAKLLAKALKKFAL-NH2 [P119, FAKLLAKALKKFAL-NH2] | 36 | 54 | 46 | 140 | 33 | 30 | 4 | 8 | 400 | 16 | 2500 | 1.25 | 0.75 | 1.25 | 624 | 8 | 45 | 8 | 32 | 128 | staph6538 (MIC) [23]: 50 µg/mL; paerug9027 (MIC) [24]: 25 µg/mL; yeast (MIC or MFC) [25]: 50 µg/mL; S. pyogenes M76 MIC [21]: 8 µg/mL; CC50 at 24 h [22]: 45 µg/mL
